Laboratory results: the supplement of paper PMC5579334

Key:
HS-PSS [1] = experiment: relative IC50 (inflection point of fitted dose-response curve, CellTiter-Glo viability, 72 h; top asymptote may be below 50% inhibition); higher = less potent
Procedure, shortened: (§1)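 Viability was scored by CellTiter-Glo ATP luminescence, scaled from vehicle to positive-control wells, with duplicates averaged where present. The cells, MPNST lines and primary human Schwann cells at 750–1000 per well, sat 72 h at 37 °C, 5% CO2, in 384-well plates preprinted with each compound at five concentrations in 10-fold steps. Four-parameter logistic fits were run on the data. These fits give drug sensitivity score and relative IC50 censored at the top concentration, and percent inhibition is reported at the top concentration.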

HSC2 [2] = experiment: as above
Procedure, shortened: as §1

STS26T [3] = experiment: as above
Procedure, shortened: as §1

S462 = experiment: as above
Procedure, shortened: as §1

S1507-2 [4] = experiment: as above
Procedure, shortened: as §1

ST8814 [5] = experiment: as above
Procedure, shortened: as §1

YST-1 = experiment: as above
Procedure, shortened: as §1

HS-Sch-2 = experiment: as above
Procedure, shortened: as §1

HSC1 [6] = experiment: as above
Procedure, shortened: as §1

HSC2 [7] = experiment: relative IC50 (inflection point of fitted dose-response curve, CellTox-Green cytotoxicity, 72 h; top asymptote may be below 50%); higher = less potent
Procedure, shortened: (§2)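 MPNST cell lines and primary human Schwann cells were incubated 72 h at 37 °C in 384-well plates holding five 10-fold compound dilutions. CellTox-Green was added before seeding at a final 1:1000 dilution and reported fluorescence from DNA released by disrupted cells. Signals were scaled to vehicle and positive-control wells, and cultures failing plate quality control were dropped. Drug sensitivity score and relative IC50 come from four-parameter logistic fits, with IC50 censored at the top concentration.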

STS26T [8] = experiment: as above
Procedure, shortened: as §2

S1507-2 [9] = experiment: as above
Procedure, shortened: as §2

HSC1 [10] = experiment: as above
Procedure, shortened: as §2

HS-PSS [11] = experiment: as above
Procedure, shortened: as §2

ST8814 [12] = experiment: as above
Procedure, shortened: as §2

Row | Compound | relative IC50 (HS-PSS [1]) | relative IC50 (HSC2 [2]) | relative IC50 (STS26T [3]) | relative IC50 (S462) | relative IC50 (S1507-2 [4]) | relative IC50 (ST8814 [5]) | relative IC50 (YST-1) | relative IC50 (HS-Sch-2) | relative IC50 (HSC1 [6]) | relative IC50 (HSC2 [7]) | relative IC50 (STS26T [8]) | relative IC50 (S1507-2 [9]) | relative IC50 (HSC1 [10]) | relative IC50 (HS-PSS [11]) | relative IC50 (ST8814 [12])
1 | COc1ccc(-c2ccc3c(N4CCOC[C@@H]4C)nc(N4CCOC[C@@H]4C)nc3n2)cc1CO [AZD8055] | 0.0917 µM | 0.028 µM | 0.0695 µM | 0.0248 µM | 0.0511 µM | 0.138 µM | 0.0205 µM | 0.0833 µM | 0.0299 µM | > 10 µM | > 10 µM | > 10 µM | > 10 µM | – | –
2 | CC[C@H](CC#N)OC(=O)N[C@@H](C)c1cccc(NC(=O)Nc2ccc(-c3cnco3)c(OC)c2)c1 [AVN944] | 0.309 µM | 0.0934 µM | 0.398 µM | 0.32 µM | 0.5 µM | 0.614 µM | 0.317 µM | 0.64 µM | 0.108 µM | > 10 µM | – | > 10 µM | > 10 µM | > 10 µM | 0.886 µM
3 | Nc1nccc(-c2c(-c3ccc(F)cc3)ncn2C2CCCCC2)n1 | – | > 10 µM | > 10 µM | > 10 µM | > 10 µM | – | 0.8 µM | 3.78 µM | > 10 µM | > 10 µM | – | > 10 µM | > 10 µM | – | > 10 µM
4 | COc1cc(F)c(F)c(Nc2ccc(I)cc2F)c1NS(=O)(=O)C1(C[C@H](O)CO)CC1 [Refametinib] | 1.8 µM | 0.443 µM | 0.306 µM | 0.382 µM | 0.362 µM | 0.451 µM | – | 1.62 µM | 0.849 µM | – | – | 1.86 µM | > 10 µM | 3.27 µM | 1.6 µM
5 | Nc1ccccc1NC(=O)c1ccc(CNC(=O)OCc2cccnc2)cc1 [Entinostat] | 3.73 µM | 2.56 µM | 2.74 µM | 1.5 µM | 2.68 µM | 3.7 µM | 1.24 µM | 3.41 µM | 2.34 µM | > 10 µM | – | 3.24 µM | > 10 µM | – | 3.64 µM
6 | Cc1cn(-c2cc(NC(=O)c3ccc(C)c(Nc4nccc(-c5cccnc5)n4)c3)cc(C(F)(F)F)c2)cn1 [Nilotinib] | – | > 10 µM | > 10 µM | > 10 µM | > 10 µM | > 10 µM | – | – | > 10 µM | – | > 10 µM | > 10 µM | > 10 µM | > 10 µM | > 10 µM
7 | COc1cc(OC2CCN(C)CC2)ccc1Nc1ncc2c(n1)n(C1CCCC1)c(=O)n2C [AZ 3146] | 1.85 µM | 3.34 µM | 1.25 µM | 0.964 µM | 2.69 µM | 2.58 µM | 1.48 µM | 1.67 µM | 3.38 µM | – | 1.95 µM | 3.51 µM | > 10 µM | 3.14 µM | 2.96 µM
